Source: patent US20070060636A1, “High enantiomeric purity dexanabinol for pharmaceutical compositions” (priority 2002, published 2007)

What was measured:
[1] = ocular toxicity, topical instillation for five days four times daily; assay type: in vivo, rabbits; settings: dexanabinol in SME, slit lamp
Description: Ocular toxicity was tested as follows. Two groups of five animals each received topical instillation of dexanabinol in SME and blank SME for five days four times daily. The animals were examined daily with a slit lamp for ocular discharge, conjunctival hyperemia, corneal fluorescein staining and iris hyperemia. Results were scored on a 0.0-4.0 scale in 0.5 steps.

[2] = 14-day multiple dose pharmacokinetic/toxicity study, rabbit; assay type: in vivo, rabbits; settings: for AUC(0-inf) / Cmax: plasma, 25 mg/kg i.v. daily, final dose Day 14 (NOAEL); for AUC∞ Ratio to Phase I / Cmax Ratio to Phase I / AUC∞ Ratio to Phase II / Cmax Ratio to Phase II: 25 mg/kg Day 14; for AUC∞ Ratio to Phase I / Cmax Ratio to Phase I: vs human 150 mg Phase I; for AUC∞ Ratio to Phase II / Cmax Ratio to Phase II: vs human 150 mg Phase II
Description: (§1) The pharmacokinetics of dexanabinol of high enantiomeric purity formulated in CREMOPHOR EL®:ethanol as described in Example 4 were investigated in rats, rabbits, and monkeys following intravenous administration of single doses, and 14 and 28 days of repeated dosing. Human pharmacokinetics was studied during Phase I and Phase II clinical studies. Dexanabinol used in the pharmacokinetic studies was formulated as drug concentrates of 50 and 100 mg/ml and diluted with sterile 0.9% NaCl solution prior to intravenous (i.v.) administration to the desired final doses. Determination of dexanabinol concentrations in plasma and brain extracts was carried out using a validated Gas Chromatography-Mass Spectra (GC-MS) assay following solid phase extraction of the drug and derivatization. The limit of quantitation of the assay is 0.1 ng/ml.
(§2) Pharmacokinetic parameters were estimated by a non-compartmental method using WinNonlin Professional version 3.2 (Pharsight Corp., Mountain View, Calif.). The maximum plasma concentration (Cmax), when the drug is administered by infusion, is the concentration at the end of infusion. The Cmax following intravenous bolus administration is the value estimated by the software to be the concentration at t=0. The terminal slope (X) was estimated by linear regression through the last time points and used to calculate the terminal half-life (t1/2) from the following equation: t1/2=0.693/λ The area under the curve from time of dosing through the last time point (AUCz) was calculated by the linear trapezoid method. The AUC extrapolated to infinity (AUC∞) was calculated from the following equation: AUC∞=AUCz+Cz/λ where Cz is the concentration at the last time point predicted by the linear regression. AUC∞ was normalized for dose (mg/kg) and presented as AUC∞/Dose. Mean residence time (MRT), when the drug is administered by infusion is described by the following equation: MRT=(AUMC/AUC)−(TI)/2 Mean residence time after i.v. bolus administration is described by the following equation: MRT=(AUMC/AUC) where AUMC is the area under the first moment curve and TI is the length of infusion. Plasma clearance (CL), and the apparent volume of distribution at steady state (Vss) were calculated from the following equations: CL=Dose/AUC∞ Vss=MRT×CL
(§3) In 14-day multiple dose pharmacokinetic studies, the NOAEL was 15 mg/kg/day in rats and 25 mg/kg/day in rabbits. In a 28-day study in monkeys the NOAEL was 25 mg/kg/day. Cmax and AUC observed following the last dose at the NOAEL in the multiple dose toxicity studies and the ratios of these values to those observed in the Phase I and II studies for the 150 mg dose are shown in Table 7.

[3] = 28-day multiple dose study, monkey; assay type: in vivo, monkeys; settings: for AUC(0-inf) / Cmax: plasma, 25 mg/kg i.v. daily, final dose Day 28 (NOAEL); for AUC∞ Ratio to Phase I / Cmax Ratio to Phase I / AUC∞ Ratio to Phase II / Cmax Ratio to Phase II: 25 mg/kg Day 28; for AUC∞ Ratio to Phase I / Cmax Ratio to Phase I: vs human 150 mg Phase I; for AUC∞ Ratio to Phase II / Cmax Ratio to Phase II: vs human 150 mg Phase II
Description: as §1, §2, §3

[4] = 14-day multiple dose pharmacokinetic/toxicity study, rat; assay type: in vivo, rats; settings: for AUC∞ Ratio to Phase I / Cmax Ratio to Phase I / AUC∞ Ratio to Phase II / Cmax Ratio to Phase II: 15 mg/kg Day 14; for AUC∞ Ratio to Phase I / Cmax Ratio to Phase I: vs human 150 mg Phase I; for AUC∞ Ratio to Phase II / Cmax Ratio to Phase II: vs human 150 mg Phase II
Description: as §1, §2, §3

[5] = single dose toxicity and pharmacokinetics, monkey; assay type: in vivo, Cynomolgus monkeys; settings: for AUC(0-inf) / Cmax: plasma, single i.v. 50 mg/kg (NOAEL); for AUC∞ Ratio to Phase I / Cmax Ratio to Phase I / Cmax Ratio to Phase II: single i.v. 50 mg/kg; for AUC∞ Ratio to Phase I / Cmax Ratio to Phase I: vs human 150 mg Phase I; for Cmax Ratio to Phase II: vs human 150 mg Phase II
Description: as §1, §2
(§4) Table 6 summarizes the maximum plasma concentration (Cmax) and the area under the plasma concentration versus time curve (AUC) observed at the NOAEL doses cited above, as well as the animal to human exposure ratios (ER) for dexanabinol of high enantiomeric purity, expressed as the ratio of the pharmacokinetic (PK) parameter to that observed for a 150 mg dose in a Phase I study in human volunteers and in Phase II study in patients suffering from severe traumatic brain injury (TBI).

[6] = single dose toxicity and pharmacokinetics, rat; assay type: in vivo, Sprague Dawley rats; settings: for AUC(0-inf) / Cmax: Sprague Dawley, plasma, single i.v. 50 mg/kg (NOAEL); for AUC∞ Ratio to Phase I / Cmax Ratio to Phase I / Cmax Ratio to Phase II: single i.v. 50 mg/kg; for AUC∞ Ratio to Phase I / Cmax Ratio to Phase I: vs human 150 mg Phase I; for Cmax Ratio to Phase II: vs human 150 mg Phase II
Description: as §1, §2, §4

[7] = both sexes, iv, rabbit male & female
[8] = both sexes, iv, monkey male & female
[9] = plasma, iv, rat female, 15 mg/kg i.v. daily, final dose Day 14 (NOAEL)
[10] = plasma, iv, rat male, 15 mg/kg i.v. daily, final dose Day 14 (NOAEL)
[11] = both sexes, cynomolgus monkey, iv, monkey male & female
[12] = cynomolgus monkey, iv, monkey female
[13] = cynomolgus monkey, iv, monkey male

Compound: CCCCCCC(C)(C)c1cc(O)c2c(c1)OC(C)(C)[C@H]1CC=C(CO)C[C@H]21 [dexanabinol, 1,1-dimethylheptyl-(3S,4S)-7-hydroxy-Δ^6-tetrahydrocannabinol]
- conjunctival injection and discharge [1]: mild conjunctival injection and discharge that did not significantly differ from SME-blank treated animals
- corneal staining, corneal opacities and iris hyperemia [1]: did not occur in any of the animals
- AUC(0-inf) [2, 7]: 67.7 µg·h/mL
- Cmax [2, 7]: 132 µg/mL
- AUC(0-inf) ([2]; iv, rabbit female): 67.9 µg·h/mL
- Cmax ([2]; iv, rabbit female): 115 µg/mL
- AUC(0-inf) ([2]; iv, rabbit male): 67.7 µg·h/mL
- Cmax ([2]; iv, rabbit male): 150 µg/mL
- AUC∞ Ratio to Phase I ([2]; rabbit female): 21.2
- Cmax Ratio to Phase I ([2]; rabbit female): 23.0
- AUC∞ Ratio to Phase II ([2]; rabbit female): 45.8
- Cmax Ratio to Phase II ([2]; rabbit female): 58.6
- AUC∞ Ratio to Phase I ([2]; rabbit male & female): 21.1
- Cmax Ratio to Phase I ([2]; rabbit male & female): 26.4
- AUC∞ Ratio to Phase II ([2]; rabbit male & female): 45.6
- Cmax Ratio to Phase II ([2]; rabbit male & female): 67.2
- AUC∞ Ratio to Phase I ([2]; rabbit male): 21.1
- Cmax Ratio to Phase I ([2]; rabbit male): 29.9
- AUC∞ Ratio to Phase II ([2]; rabbit male): 45.6
- Cmax Ratio to Phase II ([2]; rabbit male): 76.0
- NOAEL at 14 days ([2]; rabbit, in vivo, iv, 14-day multiple dose i.v.): 25 mg/kg/day
- AUC(0-inf) [3, 8]: 193 µg·h/mL
- Cmax [3, 8]: 162 µg/mL
- AUC∞ Ratio to Phase I ([3]; monkey female): 55.5
- Cmax Ratio to Phase I ([3]; monkey female): 32.2
- AUC∞ Ratio to Phase II ([3]; monkey female): 120.0
- Cmax Ratio to Phase II ([3]; monkey female): 81.9
- AUC∞ Ratio to Phase I ([3]; monkey male & female): 60.2
- Cmax Ratio to Phase I ([3]; monkey male & female): 32.4
- AUC∞ Ratio to Phase II ([3]; monkey male & female): 130.2
- Cmax Ratio to Phase II ([3]; monkey male & female): 82.5
- AUC∞ Ratio to Phase I ([3]; monkey male): 64.9
- Cmax Ratio to Phase I ([3]; monkey male): 32.6
- AUC∞ Ratio to Phase II ([3]; monkey male): 140.4
- Cmax Ratio to Phase II ([3]; monkey male): 83.0
- NOAEL at 28 days ([3]; monkey, in vivo, iv, 28-day study i.v.): 25 mg/kg/day
- AUC(0-inf) ([3]; iv, monkey female): 178 µg·h/mL
- Cmax ([3]; iv, monkey female): 161 µg/mL
- AUC(0-inf) ([3]; iv, monkey male): 208 µg·h/mL
- Cmax ([3]; iv, monkey male): 163 µg/mL
- AUC(0-inf) [4, 9]: 58.6 µg·h/mL
- Cmax at 14 days [4, 9]: 17.4 µg/mL
- AUC(0-inf) [4, 10]: 32.7 µg·h/mL
- Cmax [4, 10]: 30.2 µg/mL
- AUC∞ Ratio to Phase I ([4]; rat female): 18.3
- Cmax Ratio to Phase I ([4]; rat female): 3.5
- AUC∞ Ratio to Phase II ([4]; rat female): 39.5
- Cmax Ratio to Phase II ([4]; rat female): 8.8
- AUC∞ Ratio to Phase I ([4]; rat male): 10.2
- Cmax Ratio to Phase I ([4]; rat male): 6.0
- AUC∞ Ratio to Phase II ([4]; rat male): 22.1
- Cmax Ratio to Phase II ([4]; rat male): 15.4
- NOAEL at 14 days ([4]; rat, in vivo, iv, 14-day multiple dose i.v.): 15 mg/kg/day
- AUC(0-inf) [5, 11]: 127 µg·h/mL
- Cmax [5, 11]: 171 µg/mL
- NOAEL ([5]; cynomolgus monkey, in vivo, iv, single dose i.v., read-out: no observed adverse effect level (NOAEL)): 50 mg/kg
- AUC(0-inf) [5, 12]: 136 µg·h/mL
- Cmax [5, 12]: 175 µg/mL
- AUC(0-inf) [5, 13]: 117 µg·h/mL
- Cmax [5, 13]: 167 µg/mL
- AUC∞ Ratio to Phase I ([5]; monkey female): 42.4
- Cmax Ratio to Phase I ([5]; monkey female): 35.0
- Cmax Ratio to Phase II ([5]; monkey female): 89.0
- AUC∞ Ratio to Phase I ([5]; monkey male & female): 39.5
- Cmax Ratio to Phase I ([5]; monkey male & female): 34.2
- Cmax Ratio to Phase II ([5]; monkey male & female): 86.9
- AUC∞ Ratio to Phase I ([5]; monkey male): 36.6
- Cmax Ratio to Phase I ([5]; monkey male): 33.4
- Cmax Ratio to Phase II ([5]; monkey male): 84.9
- AUC(0-inf) ([6]; iv, rat female): 173 µg·h/mL
- Cmax ([6]; iv, rat female): 38.8 µg/mL
- AUC(0-inf) ([6]; iv, rat male): 67.5 µg·h/mL
- Cmax ([6]; iv, rat male): 102 µg/mL
- NOAEL ([6]; Sprague-Dawley, rat, in vivo, iv, single dose i.v., read-out: no observed adverse effect level (NOAEL)): 50 mg/kg
- AUC∞ Ratio to Phase I ([6]; rat female): 54.0
- Cmax Ratio to Phase I ([6]; rat female): 7.7
- Cmax Ratio to Phase II ([6]; rat female): 19.7
- AUC∞ Ratio to Phase I ([6]; rat male): 21.0
- Cmax Ratio to Phase I ([6]; rat male): 20.4
- Cmax Ratio to Phase II ([6]; rat male): 51.9
